Measured values as given in PubChem BioAssay AID2060614 (Molecular Pharmacology Branch, DTP, NCI, 2025).
pIC50: −log10 of the molar value. Where “and” joins values, the source holds several entries; their conditions need not be identical. Identical values can stand only once.

Tested on: 598228-144-R-J1-PDC complex spheroids, viability
Test: Anticancer human tumor 598228-144-R-J1-PDC patient-derived serous endometrial adenocarcinoma cell line growth inhibition [CLK]
Details: for viability, T/C: stronger effect = lower value
Procedure, shortened: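 Multi-cell-type spheroids combined patient-derived tumor cells with HUVEC endothelial cells and human mesenchymal stem cells. Paired agents were dosed in half-log steps down from about clinical Cmax, or from 10 microM where Cmax was unknown.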

[1] = curve of first compound, second compound 0.0316 µM
[2] = curve of first compound, second compound 0.1 µM
[3] = curve of first compound, second compound 0.316 µM
[4] = curve of first compound, second compound 1 µM
[5] = curve of first compound, second compound 3.16 µM
[6] = curve of first compound, second compound 10 µM
[7] = second compound 0.0316 µM, first compound 0.0316 µM
[8] = second compound 0.0316 µM, first compound 0.1 µM
[9] = second compound 0.0316 µM, first compound 0.316 µM
[10] = second compound 0.0316 µM, first compound 1 µM
[11] = second compound 0.0316 µM, first compound 3.16 µM
[12] = second compound 0.0316 µM, first compound 10 µM
[13] = second compound 0.1 µM, first compound 0.0316 µM
[14] = second compound 0.1 µM, first compound 0.1 µM
[15] = second compound 0.1 µM, first compound 0.316 µM
[16] = second compound 0.1 µM, first compound 1 µM
[17] = second compound 0.1 µM, first compound 3.16 µM
[18] = second compound 0.1 µM, first compound 10 µM
[19] = second compound 0.316 µM, first compound 0.0316 µM
[20] = second compound 0.316 µM, first compound 0.1 µM
[21] = second compound 0.316 µM, first compound 0.316 µM
[22] = second compound 0.316 µM, first compound 1 µM
[23] = second compound 0.316 µM, first compound 3.16 µM
[24] = second compound 0.316 µM, first compound 10 µM
[25] = second compound 1 µM, first compound 0.0316 µM
[26] = second compound 1 µM, first compound 0.1 µM
[27] = second compound 1 µM, first compound 0.316 µM
[28] = second compound 1 µM, first compound 1 µM
[29] = second compound 1 µM, first compound 3.16 µM
[30] = second compound 1 µM, first compound 10 µM
[31] = second compound 3.16 µM, first compound 0.0316 µM
[32] = second compound 3.16 µM, first compound 0.1 µM
[33] = second compound 3.16 µM, first compound 0.316 µM
[34] = second compound 3.16 µM, first compound 1 µM
[35] = second compound 3.16 µM, first compound 3.16 µM
[36] = second compound 3.16 µM, first compound 10 µM
[37] = second compound 10 µM, first compound 0.0316 µM
[38] = second compound 10 µM, first compound 0.1 µM
[39] = second compound 10 µM, first compound 0.316 µM
[40] = second compound 10 µM, first compound 1 µM
[41] = second compound 10 µM, first compound 3.16 µM
[42] = second compound 10 µM, first compound 10 µM
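Note: spheroids exposed to compounds for seven days before readout.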
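Throughout, for viability, T/C: 100% = DMSO vehicle control wells.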

SMILES: CC1COCCN1c1cc(C2(S(C)(=N)=O)CC2)nc(-c2ccnc3[nH]ccc23)n1 (stereo not given) + CN1CCN(c2cc(C(=O)Nc3cc4cc(-c5cnn(C)c5)ccc4cn3)ccn2)CC1
- pIC50 [1]: 5.21
- pIC50 [2]: 5.52
- pIC50 [3]: > 7.50
- pIC50 [4]: > 7.50
- pIC50 [5]: > 7.50
- pIC50 [6]: > 7.50
- viability, T/C [7]: 126%
- viability, T/C [8]: 125%
- viability, T/C [9]: 105%
- viability, T/C [10]: 102%
- viability, T/C [11]: 63.5%
- viability, T/C [12]: 38.3%
- viability, T/C [13]: 127%
- viability, T/C [14]: 122%
- viability, T/C [15]: 110%
- viability, T/C [16]: 89.1%
- viability, T/C [17]: 46%
- viability, T/C [18]: 28.6%
- viability, T/C [19]: 17.1%
- viability, T/C [20]: 16.4%
- viability, T/C [21]: 17.9%
- viability, T/C [22]: 14.8%
- viability, T/C [23]: 16.3%
- viability, T/C [24]: 13.3%
- viability, T/C [25]: 1.37%
- viability, T/C [26]: 1.72%
- viability, T/C [27]: 2.93%
- viability, T/C [28]: 1.07%
- viability, T/C [29]: 2.89%
- viability, T/C [30]: 7.44%
- viability, T/C [31]: 1.86%
- viability, T/C [32]: 3.02%
- viability, T/C [33]: 2%
- viability, T/C [34]: 1.65%
- viability, T/C [35]: 3.13%
- viability, T/C [36]: 7.42%
- viability, T/C [37]: 1.07%
- viability, T/C [38]: 1.83%
- viability, T/C [39]: 2.32%
- viability, T/C [40]: 0.91%
- viability, T/C [41]: 2.14%
- viability, T/C [42]: 3.43%

SMILES: CC(=O)O[C@H]1C(=O)[C@@]2(C)[C@H]([C@H](OC(=O)c3ccccc3)[C@]3(O)C[C@H](OC(=O)[C@H](O)[C@@H](NC(=O)c4ccccc4)c4ccccc4)C(C)=C1C3(C)C)[C@]1(OC(C)=O)CO[C@@H]1C[C@@H]2O + CNC(=O)c1ccc(Nc2nc(OC3CCCC3)c3c(-c4ccc5nc(C)oc5c4)c[nH]c3n2)c(OC)c1
- pIC50 [1]: > 7.50
- pIC50 [2]: < 5.00
- pIC50 [3]: < 5.00
- pIC50 [4]: < 5.00
- pIC50 [5]: < 5.00
- pIC50 [6]: < 5.00
- viability, T/C [7]: 45.6%
- viability, T/C [8]: 46.2%
- viability, T/C [9]: 40.3%
- viability, T/C [10]: 40.9%
- viability, T/C [11]: 45.2%
- viability, T/C [12]: 50.6%
- viability, T/C [13]: 70%
- viability, T/C [14]: 58%
- viability, T/C [15]: 64.8%
- viability, T/C [16]: 66.2%
- viability, T/C [17]: 57.4%
- viability, T/C [18]: 67%
- viability, T/C [19]: 121%
- viability, T/C [20]: 123%
- viability, T/C [21]: 94.9%
- viability, T/C [22]: 108%
- viability, T/C [23]: 106%
- viability, T/C [24]: 84.1%
- viability, T/C [25]: 120%
- viability, T/C [26]: 102%
- viability, T/C [27]: 92.5%
- viability, T/C [28]: 125%
- viability, T/C [29]: 109%
- viability, T/C [30]: 86.8%
- viability, T/C [31]: 102%
- viability, T/C [32]: 96.2%
- viability, T/C [33]: 103%
- viability, T/C [34]: 108%
- viability, T/C [35]: 105%
- viability, T/C [36]: 92.1%
- viability, T/C [37]: 101%
- viability, T/C [38]: 97%
- viability, T/C [39]: 109%
- viability, T/C [40]: 103%
- viability, T/C [41]: 90.4%
- viability, T/C [42]: 107%

SMILES: COc1ccc([C@@H](O)c2cc(-c3ncnc4cc(N5CCOCC5)ccc34)c(F)cc2Cl)nn1
- viability, T/C (compound 0.0316 µM): 96.2% and 103%
- viability, T/C (compound 0.1 µM): 93.5% and 88.3%
- viability, T/C (compound 0.316 µM): 83.5% and 94.8%
- viability, T/C (compound 1 µM): 63.7% and 76.9%
- viability, T/C (compound 3.16 µM): 54.9% and 55.7%
- viability, T/C (compound 10 µM): 34.8% and 31.7%
- pIC50 (curve of compound): 5.45 and 5.38

SMILES: Nc1ccn(C2OC(CO)C(O)C2(F)F)c(=O)n1 (stereo not given)
- viability, T/C (compound 0.0316 µM): 32.7% and 37.1%
- viability, T/C (compound 0.1 µM): 24.5% and 31.8%
- viability, T/C (compound 0.316 µM): 20.6% and 26.5%
- viability, T/C (compound 1 µM): 24.4% and 28%
- viability, T/C (compound 3.16 µM): 21.4% and 36.8%
- viability, T/C (compound 10 µM): 22% and 27.7%
- pIC50 (curve of compound): > 7.50

SMILES: Nc1ccccc1NC(=O)c1ccc(CNC(=O)OCc2cccnc2)cc1 + CN1CCN(c2cc(C(=O)Nc3cc4cc(-c5cnn(C)c5)ccc4cn3)ccn2)CC1
- pIC50 [1]: 5.75
- pIC50 [2]: 5.66
- pIC50 [3]: > 7.50
- pIC50 [4]: > 7.50
- pIC50 [5]: > 7.50
- pIC50 [6]: > 7.50
- viability, T/C [7]: 125%
- viability, T/C [8]: 114%
- viability, T/C [9]: 93.4%
- viability, T/C [10]: 68.2%
- viability, T/C [11]: 32.4%
- viability, T/C [12]: 3.45%
- viability, T/C [13]: 121%
- viability, T/C [14]: 123%
- viability, T/C [15]: 97.2%
- viability, T/C [16]: 71.3%
- viability, T/C [17]: 41%
- viability, T/C [18]: 0.32%
- viability, T/C [19]: 17.1%
- viability, T/C [20]: 14.1%
- viability, T/C [21]: 13%
- viability, T/C [22]: 10.7%
- viability, T/C [23]: 1.75%
- viability, T/C [24]: 0.23%
- viability, T/C [25]: 1.29%
- viability, T/C [26]: 1.3%
- viability, T/C [27]: 1.11%
- viability, T/C [28]: 1.01%
- viability, T/C [29]: 1.46%
- viability, T/C [30]: 0.57%
- viability, T/C [31]: 1.49%
- viability, T/C [32]: 3.39%
- viability, T/C [33]: 1.88%
- viability, T/C [34]: 1.93%
- viability, T/C [35]: 1.66%
- viability, T/C [36]: 0.89%
- viability, T/C [37]: 0.8%
- viability, T/C [38]: 0.77%
- viability, T/C [39]: 1.17%
- viability, T/C [40]: 1.13%
- viability, T/C [41]: 2.8%
- viability, T/C [42]: 2.51%
